Data taken from patent US9656981B2, “Peripherally-acting cannabinoid receptor agonists for chronic pain” (The Regents of the University of California, priority 2012, dated 2017).
Where two headings read alike, the source gives them in different places.

Key:
[1] = test system: sciatic nerve entrapment (SNE) neuropathy; assay: SNE neuropathy, mechanical allodynia (von Frey); format: in vivo, rat; conditions: for effect of pretreatment with the CBR blocker on the anti-allodynic effect of PrNMI: blocker before PrNMI 0.6 mg/kg, SNE rats
Description: The effectiveness of CBR agonists was tested for alleviating the painful symptoms of neuropathy induced by unilateral sciatic nerve entrapment (SNE)^131. The peripheral neuropathy induced by SNE is highly comparative to that of chronic constriction injury (CCI), which uses chromic gut suture materials instead of polyethylene cuffs^132. […] This increased excitability is at least in part attributable to injury-induced post-transcriptional transport of the voltage-gated sodium channel 1.8 (NaV1.8) mRNA, axonal accumulation of NaV1.8 mRNA, and its local protein translation leading to the increased NaV1.8 functional expression in injured nerve^136. The hyperexcitability and ectopic burst discharge of primary sensory neurons are widely considered to be the major contributors to pain symptomatology of peripheral neuropathy models. The SNE-induced mechanical allodynia effectively models the most common complaint of human neuropathy patients of dynamic mechanical allodynia. Behavioral measurements of mechanical sensitivity were conducted before and after induction of SNE as follows:
Rats are placed in a plastic-walled cage (10×20×13 cm) with a metal mesh floor (0.6×0.6 cm holes) and allowed to acclimate for 10 min. The amount of pressure (g) needed to evoke a hindpaw withdrawal response is measured 4 times on each paw separated by 30-s intervals using a von Frey-type digital meter (Model 1601C, IITC Instr.). Results of 4 tests/session are averaged for each paw.

human CB1R (hCB1R) = human CB1R (hCB1R) (Homo sapiens, UniProt P21554); assay: human CB1R (hCB1R) calcium flux assay; format: cell-based; conditions: Table 1; read-out: Ca Flux % Emax
Description: Compounds were first screened for: a) CB1R and CB2R binding, b) CB1R agonist activity using the human CB1R (hCB1R) calcium flux assay, and c) BBB permeability using the Madin-Darby canine kidney (MDCK-MDR1) cell line assay.
The calcium 3 dye assays were run according to manufacturer's specifications (http://www.moleculardevices.com/Products/Assay-Kits/GPCRs/FLIPR-Calcium.html) and as reported in our previous publications^112,113. Briefly, wells of black clear-bottom 96-well tissue culture-treated plates are seeded with 20,000 cells the afternoon before assay. The day of assay, the cells are incubated with the Ca^2+ indicator dye for 1 hr @ 37° C. For antagonist assays, the test compound is preincubated with the cells during the last 10 min of the dye incubation. Basal or unstimulated fluorescence intensity is recorded in the FlexStation @ 37° C. for 13 sec followed by the addition of test compound or CP 55,940 (depending on the assay endpoint). Fluorescence intensity is recorded for an additional 47 sec. The effect of test compound in each well is determined by subtracting the minimum from the maximum fluorescence during the 47-sec recording period.

CB2R = CB2R (Homo sapiens, UniProt P34972); assay: CB2R radioligand displacement binding assay (CP55940 radioligand)
Description: Detailed radioligand displacement assays (using the well-characterized CBR agonist […] as the radioligand) were conducted to determine the affinity (Ki) of the test compounds for CB1R and CB2R as has been previously described by our group^112,113. Heterologous competition binding assays were performed to calculate receptor affinities. Unlabeled SR141716 or SR144528 were used as appropriate controls for non-specific binding (NSB) in the assay. Calculation of the equilibrium dissociation constant (Ki) was performed using the Cheng-Prusoff equation.

CB1R = CB1R (Homo sapiens, UniProt P21554); assay: CB1R radioligand displacement binding assay (CP55940 radioligand)
Description: Heterologous competition binding assays were performed to calculate receptor affinities. Unlabeled SR141716 or SR144528 were used as appropriate controls for non-specific binding (NSB) in the assay. Calculation of the equilibrium dissociation constant (Ki) was performed using the Cheng-Prusoff equation.

Plasma stability assay = format: in vitro ADME; conditions: rat plasma, 10 μM
Description: Compounds are incubated at 10 μM in rat plasma at 37° C. A solution of each compound is prepared in ethanol at a concentration of 1 mM. A 2.5 μL volume of the 1 mM solution is added to 247.5 μL of rat plasma (male Sprague Dawley) in a glass test tube in a 37° C. water bath. Samples (50 μL) are removed at 0, 30 and 60 min and immediately extracted with 3 volumes (150 μL) of methanol. Samples are centrifuged (2500 rpm for 10 min at 4° C.) to pellet protein and supernatants transferred to LC/MS vials for analysis. Samples are stored at −80° C. prior to analysis.

[2] = S9 fraction stability assay; format: in vitro ADME; conditions: rat liver S9, 10 μM
Description: Compounds are incubated at 10 μM in rat (male Sprague Dawley) liver S9 at 37° C. Each compound is prepared in ethanol at a concentration of 1 mM. An assay mixture containing S9 (1 mg protein/mL final concentration) and an NADPH regenerating system (NADP [1 mM final], glucose 6-phosphate [5 mM final] and glucose 6-phosphate dehydrogenase [1 U/mL final]) in a buffer consisting of 50 mM KPO4 phosphate buffer, pH 7.4 with 3 mM MgCl2 is prepared and preincubated at 37° C. for 5 min. A 10 μL volume of the 1 mM solution is added to 990 μL of assay mixture in a glass test tube @ 37° C. to initiate the assay. Samples (50 μL) are removed at 0, 15, 30, 60 and 120 min and immediately extracted with 3 volumes (150 μL) of methanol, centrifuged to pellet protein and supernatants transferred to LC/MS vials for analysis.

[3] = Table 1, CP55940 radioligand, read-out: CB2_KI_CP
[4] = Table 1, CP55940 radioligand, read-out: CB1_KI_CP

Chain of CB2R (P34972 whole entry): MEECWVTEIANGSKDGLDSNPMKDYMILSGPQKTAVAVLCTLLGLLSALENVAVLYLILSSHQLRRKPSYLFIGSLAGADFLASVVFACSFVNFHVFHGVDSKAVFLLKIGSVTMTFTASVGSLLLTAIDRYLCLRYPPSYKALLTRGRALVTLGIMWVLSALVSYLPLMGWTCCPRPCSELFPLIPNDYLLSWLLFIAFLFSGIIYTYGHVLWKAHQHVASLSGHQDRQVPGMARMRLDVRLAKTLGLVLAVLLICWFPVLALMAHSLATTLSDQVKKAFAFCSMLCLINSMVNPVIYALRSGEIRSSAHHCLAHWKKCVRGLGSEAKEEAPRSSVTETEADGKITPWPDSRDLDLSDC
Chain of CB1R (P21554 whole entry): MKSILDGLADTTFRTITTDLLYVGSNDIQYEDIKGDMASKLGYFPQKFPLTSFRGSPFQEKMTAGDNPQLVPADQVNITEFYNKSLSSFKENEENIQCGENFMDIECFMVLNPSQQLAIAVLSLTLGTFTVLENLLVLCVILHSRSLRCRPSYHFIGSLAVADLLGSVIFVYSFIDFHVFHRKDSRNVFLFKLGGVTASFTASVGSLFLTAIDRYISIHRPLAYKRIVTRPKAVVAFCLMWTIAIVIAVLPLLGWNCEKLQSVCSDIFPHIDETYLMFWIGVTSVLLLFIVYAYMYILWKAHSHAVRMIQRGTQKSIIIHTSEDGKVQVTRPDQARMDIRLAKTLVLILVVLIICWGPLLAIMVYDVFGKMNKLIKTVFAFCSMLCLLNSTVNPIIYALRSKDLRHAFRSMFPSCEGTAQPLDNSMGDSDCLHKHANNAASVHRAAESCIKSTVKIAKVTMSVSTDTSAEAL
Chain of human CB1R (hCB1R) (P21554 whole entry): as above

4-{2-[(1E)-2-[(4- methoxy- naphthalen-1- yl)methylidene]- 1H-inden-3- yl]ethyl} morpholine [Compound 10]
effect on contralateral hindpaw withdrawal thresholds ([1]; 0.3 mg/kg, hindpaw contralateral to SNE): Neither ENMI nor 13339-135-25 had any significant effect

CCc1ccc(/C=C2\C=C(CCN3CCOCC3)c3ccccc32)c2ccccc12 [Compound 8, 4-{2-[(1E)-1-[(4-ethylnaphthalen-1-yl)methylidene]-1H-inden-3-yl]ethyl} morpholine]
Emax (human CB1R (hCB1R)): 121% | Ki (CB2R; [3]): 0.79 nM | Ki (CB1R): 1 nM | Ki (CB1R; [4]): 0.86 nM

CCCCCn1cc(C(=O)c2ccc(C(=O)OC)c3ccccc23)c2ccccc21 [Compound 54, methyl 4-(1-pentyl-1H-indole-3-carbonyl) naphthalene-1-carboxylate]
Ki (CB2R): 73.4 nM | Plasma % remaining @ xy min (Plasma stability assay; 30 min): 9.6 @ 30% | Ki (CB1R; read-out: CB1R binding affinity (Ki)): 20 nM | S9% remaining @ xy min ([2]; 30 min): 2.62 @ 30% | S9% remaining @ xy min ([2]; 30 min, listed as 4-carbomethoxy ester): 3% | SNE Neuropath Assay-% return to pre-drug (0.3 mg/kg) contralateal threshold at 2-3 h ([1]; 0.3 mg/kg): 0%

COC(=O)c1ccc(C(=O)c2cn(CCN3CCOCC3)c3ccccc23)c2ccccc12 [Compound 56, methyl 4-{1-[2-(morpholin-4-yl)ethyl]-1H-indole-3-carbonyl} naphthalene-1-carboxylate]
Ki (CB2R): 61.4 nM | Plasma % remaining @ xy min (Plasma stability assay; 60 min): 0 @ 60% | Ki (CB1R; [4]): 52.4 nM | S9% remaining @ xy min ([2]; 60 min): 0 @ 60%

CCCCCn1cc(C(=O)c2ccc(C(=O)CC)c3ccccc23)c2ccccc21 [Compound 61, 1-[4-(1-pentyl-1H-indole-3-carbonyl)naphthalen-1-yl]propan-1-one]
Ki (CB2R): 32.7 nM | Plasma % remaining @ xy min (Plasma stability assay; 60 min): 75 @ 60% | Ki (CB1R; [4]): 5.71 nM | S9% remaining @ xy min ([2]; 60 min): 3 @ 60%

CCCCCn1cc(C(=O)c2cccc3ccccc23)c2c(F)cccc21 [Compound 62, 4-fluoro-3-(naphthalene-1-carbonyl)-1-pentyl-1H-indole]
Ki (CB2R; [3]): 35.6 nM | Plasma % remaining @ xy min (Plasma stability assay; 60 min): 69 @ 60% | Ki (CB1R; [4]): 6.5 nM | S9% remaining @ xy min ([2]; 60 min): 5 @ 60%

CCCCCn1cc(C(=O)c2cccc3ccccc23)c2cc(F)ccc21 [Compound 63, 5-fluoro-3-(naphthalene-1-carbonyl)-1-pentyl-1H-indole]
Ki (CB2R; [3]): 65 nM | Plasma % remaining @ xy min (Plasma stability assay; 60 min): 99 @ 60% | Ki (CB1R; [4]): 9.85 nM | S9% remaining @ xy min ([2]; 60 min): 13 @ 60%

CCCCCn1cc(C(=O)c2cccc3ccccc23)c2ccc(F)cc21 [Compound 64, 6-fluoro-3-(naphthalene-1-carbonyl)-1-pentyl-1H-indole]
Ki (CB2R; [3]): 16.4 nM | Ki (CB1R; [4]): 2.35 nM | effect on SNE-induced mechanical allodynia (ipsilateral hindpaw withdrawal thresholds) ([1]; 0.3 mg/kg, systemic injection): anti-allodynic effects | SNE Neuropath Assay-% return to pre-drug (0.3 mg/kg) contralateal threshold at 2-3 h ([1]; 0.3 mg/kg): 54.4%

CCCc1ccc(C(=O)c2cn(CCCCCF)c3cccc(F)c23)c2ccccc12 [Compound 67, 4-fluoro-1-(5-fluoropentyl)-3-(4-propyl-naphthalene-1-carbonyl)-1H-indole]
Ki (CB2R): 3.61 nM | Plasma % remaining @ xy min (Plasma stability assay; 60 min): 95 @ 60% | Ki (CB1R; [4]): 2.55 nM | S9% remaining @ xy min ([2]; 60 min): 6 @ 60%

Cc1c(C(=O)NN2CCCCC2)nn(-c2ccc(Cl)cc2Cl)c1-c1ccc(Cl)cc1 [SR141617A, rimonabant, reference compound]
effect of pretreatment with the CBR blocker on the anti-allodynic effect of PrNMI [1]: completely blocked

SR144528 [reference compound]
effect of pretreatment with the CBR blocker on the anti-allodynic effect of PrNMI [1]: little effect
